{"source": "patent US20030236246A1", "about": "“Method for decreasing capillary permeability in the retina” (priority 2002, published 2003)", "key": {"C57B/J6 mice": {"system": "C57B/J6 mice", "assay": "BRB breakdown in mice after intravitreal VEGF, quantitated with [3H]-mannitol tracer", "format": "in vivo", "from_the_text": "Intraperitoneally administered radiolabeled tracer can be used to quantitate BRB breakdown in mice exposed to vascular endothelial growth factor (VEGF). This technique is particularly advantageous with neonatal mice because of the technical difficulty involved with intravascular injections. Also, the comparison of retinas from injected and control eyes to tissues without a blood-tissue barrier corrects for variations in the amount of isotope injected or absorbed into the circulation.\nTen six- to seven-week-old C57B/J6 mice (Jackson Labs, Bar Harbor, Me.) are weighed to determine the proper dosage of anesthesia and tracer required. Mice are anesthetized with a solution containing 25 mg/kg ketamine (Ketaset; Fort Dodge Animal Health, Fort Dodge, Iowa) and 4 mg/kg rompun (Tranquived; Vedco, St. Joseph, Mo.) diluted 1:10 in saline prior to injection. Five mice are subjected to gavage with 50 mg/kg N-benzoyl staurosporine for three days prior to intravitreal administration of VEGF; the other five mice are subjected to gavage with vehicle.\nTropicamide (1%) is used to dilate the pupils of anesthetized mice. Under a dissecting microscope, a Harvard injector (PLI 100) is used with a glass pipet pulled to a diameter of 13-20 μm to inject 1 μl of saline containing VEGF (R&D Systems, Minneapolis, Minn.). The eyes are entered posterior to the limbus, directing the pipet toward the optic nerve. The solution is then deposited just in front of the retina without inflicting any damage to the lens. […]\nOne ml NCSII (Amersham, Chicago, Ill.) solubilizing solution is added to each vial and the vials are incubated overnight in a 50° C. water bath. […] The specimens are counted on a Wallac 1409 Liquid Scintillation Counter (Gaithersburg, :Md.).\nThe counts per mg tissue are determined for treated (with N-benzoyl staurosporine) and untreated retina, lung, and kidney. Ratios of these values for treated or untreated retina/lung or kidney and for lung/kidney are calculated. […]"}, "C57BL/6J mice": {"system": "C57BL/6J mice", "assay": "PG-induced breakdown of the BRB in mice after intraocular injection of a vasopermeability factor", "format": "in vivo", "conditions": "50 mg/kg/day by gavage for 3 days, then intraocular PGE1 or PGE2 10^-5 M", "method": "Six to seven week old male C57BL/6J mice are treated in accordance with the ARVO resolution on the care of animals in research. Mice are treated by gavage with vehicle or vehicle containing 50 mg/kg/day of PKC412, PTK787, SU1498, or Gleevec. After 3 days of treatment, mice are given an intraocular injection of 1 μl of vehicle containing a vasopermeability factor or vehicle alone.\nMice are anesthetized with 25 mg/kg of ketamine and 4 mg/kg of xylazine, pupils are dilated with 1% tropicamide. Intraocular injections are performed as previously described with a Harvard pump microinjection apparatus and pulled glass micropipets. Each micropipet is calibrated to deliver 1 μl of vehicle upon depression of a foot switch. […] Some mice are used for quantitative measurement of BRB breakdown using [3H]mannitol and in others leakage of albumin through retinal vessels is assessed by Western blots or immunohistochemistry.\nSix or 24 hours after intraocular injections, mice are given an intraperitoneal injection of 1 μCi / gram body weight of [3H]mannitol (New England Nuclear, Boston, Mass.). […] The vials are weighed and the tissue weights are recorded. […] Radioactivity is counted with a Wallac 1409 Liquid Scintillation Counter (Gaithersburg, Md.). […]"}, "[1]": {"conditions": "mice, 50 mg/kg by gavage for three days before intravitreal VEGF 10^-6 M, [3H]-mannitol at 6 hours"}}, "data": [{"smiles": "CO[C@@H]1[C@H](N(C)C(=O)c2ccccc2)C[C@H]2O[C@]1(C)n1c3ccccc3c3c4c(c5c6ccccc6n2c5c31)C(=O)NC4", "note": "[N-benzoyl staurosporine]", "values": [{"measurement": "leakage of radioactive tracer out of the retinal blood vessels", "setting": "C57B/J6 mice; VEGF-injected mice given 50 mg/kg N-benzoyl staurosporine by gavage for three days, compared to vehicle-gavaged VEGF-injected mice", "result": "significantly less leakage"}, {"measurement": "retina/kidney ratio", "setting": "C57B/J6 mice; [1]", "result": "0.3881±0.0436"}, {"measurement": "retina/lung ratio (cpm per mg of retina/cpm per mg of lung)", "setting": "C57B/J6 mice; [1]", "result": "0.6326±0.0656"}, {"measurement": "PG-induced breakdown of the BRB", "setting": "C57BL/6J mice", "result": "reduces PG-induced breakdown of the BRB"}]}, {"smiles": "Clc1ccc(Nc2nnc(Cc3ccncc3)c3ccccc23)cc1", "note": "[PTK787, reference compound]", "values": [{"measurement": "PG-induced breakdown of the BRB", "setting": "C57BL/6J mice", "result": "not"}]}]}
